The results in this text go back to patent US20030044400A1, “Composition and method for treating cells” (priority 2001, published 2003).

One data set deals with LNCaP cells. Briefly: Fetuin-induced apoptosis, Hoechst staining confirmed by MTS assay. It is filed as cell-based, Human. The protocol: The purified fetuin was tested on various cancer cell lines. […] The DNA condensation and breakage of nuclei which are the characteristics for apoptosis were observed by staining the cell with Hoechst dye at 0.1 ug/ml.
Fetuin purified by modified Spiro method was further incubated with Zinc Acetate or Barium Acetate (0.25M) at room temperature for 1 hr. Free ions were removed by repetitive concentration against 20 volumes of PBS three times. Fetuin, Zn-charged fetuin and Ba-charged fetuin (5 uM) and PBS were then separately incubated with LNCaP cells for 4 hr. Percent of cells under apoptosis was determined by Hoechst staining and confirmed by MTS assay. Each data represents the average of two assays. Zn-charged or Ba-charged fetuin may contain free Zn or Ba (about 30 uM). However, all the cell lines are not affected by Zn or Ba alone at all concentrations tested (up to 66 uM).
Various concentrations of Zn-charged fetuin prepared as described were incubated with cell lines for 6 hr. Percent of cell under apoptosis was determined by Hoechst staining and confirmed by MTS assay. The concentration of Zn-charged fetuin for the induction of 50% of cells under apoptosis (LD50) was determined. Each data represents the average of three assays.

Data set [1] deals with immune system (splenic T- and B-cells, response to SRBC). As to conditions: mouse, in vivo.
Description: The Balb/C mice weighed 20-30 g with six to eight weeks of age and divided equally between male and female are used. Fetuin is administered IV or IP to each group of six animals either a single dose or multiple doses ranging from 0.05 mg to 5 mg per 20 g body weight. The volume of each injection is 0.2 ml. Phosphate buffered saline is used as the control and dilution vehicle.
Flow cytometric characterization of splenic T- and B-cells in Fetuin treated mice: T cells of mice can be recognized by the presence of Thy 1.2 or Thy 1.1 (depending on the genotype of the mouse), receptors isolated on the surface of peripheral T cells (lymph node, spleen and blood) as well as thymic epithelia.
In a further data set the test system is PC-3 induced tumor. Briefly: Prostate tumor (PC-3) in immunodeficient mice. It is filed as in vivo, immunodeficient mice (TACN: NH (S)—NuFDF homozygous males). Conditions: for reduction of prostate tumor: immunodeficient mice, 5 mg/30 g body weight, 5 days consecutive ip injection, vs control. The protocol:
Another set of experiments were designed using immunodeficient mice (TACN: NH (S)—NuFDF homozygous males 3-4 wks old). The 2×10^7 PC-3 cells were implanted and allowed to grow for 6 wks. The mice in the control group received 0.5 ml saline intraperitoneally for 5 days and in the treated group received 0.5 ml Fetuin for 5 days.
The mice divided into 5 each group in this study were TACN:NH (S)—NuFDF homozygous males 3-4 weeks old and weighed an average of 22 g at the start of the experiment and 30 g at the termination of the experiment six weeks later. The animals were induced to prostate tumor formation by inoculating 2×10^7 PC-3 cells in 0.1 ml PBS suspension on the upper half of the dorsal thorax of the mouse. The tumor will be allowed to grow for 6 weeks. The mice in the control group will receive 0.1 ml saline intraperitoneally for 5 days and the mice in the treated group will receive 0.02 ml, 0.1 ml and 0.2 ml of Fetuin 10 mg/ml per day for 5 days. Treatment will start the day after tumor inoculation. Tumor will be weighed at the end of the experiment when the mice will be sacrificed for subsequent histopathology. Animals will be monitored daily for signs of tumor and/or any toxic effects from the test material.

[2] abbreviates: immunodeficient mice with PC-3, 0.5 ml Fetuin ip for 5 days, 9 mice.

In the case of “Fetuin: Fetal bovine fetuin purified from fetal bovine serum by modified Spiro method; 60 Kd glycoprotein, homologue of alpha 2-HS glycoprotein”, the “LD50 of Fetuin-induced Apoptosis” value in the data set with LNCaP cells (LNCaP, Zn-charged fetuin, 6 hr, concentration for 50% of cells under apoptosis, average of three assays) turned out to be 1 µM. In the data set with LNCaP cells (LNCaP, purified fetuin, Hoechst dye 0.1 ug/ml), the induction of apoptosis result was “strongly induced apoptosis”. Also, the “apoptotic activity by method of preparation” value in the data set with LNCaP cells (Pederson Method (Sigma) vs modified Spiro method) is recorded as “induced apoptosis”. The apoptosis-inducing activity entry in the data set with LNCaP cells (Substitution of Zinc by Barium) is listed as “completely abolished”. Moreover, the “apoptosis-inducing activity in LNCaP cells” value in the data set with LNCaP cells (fetal vs mature fetuins at the same concentration) is “strongly induced apoptosis”. Besides, in data set [1], the “cell surface density of s-Ig on the B-cells” value is reported as “no significant differences”, the “fraction of lymphocytes which were B-cells (s-Ig+)” value was “no differences between treatment groups”, the “fraction of splenic lymphocyte that were T-cells” value was “remained constant” and the “mean level of expression of Thy 1.2” value is listed as “did not differ significantly”. In the data set on PC-3 induced tumor (setting [2]), the “Ave. Mouse Weight (gm)” value is given as 30.6 gm, the “Ave. Tumor Weight (gm)” value was determined as 0 gm and the “Tumor Incidence (%)” value came to 0%. For the same substance, in the data set with PC-3 induced tumor, the “reduction of prostate tumor” value is given as “up to 100%”. Besides, the “reduction of prostate tumor” value with PC-3 induced tumor (listed as Fetal fetuin) is reported as 100%.
